Laboratory results as given in patent US10959992B2, “Methods of treatment of asthma and COPD” (Bridge Pharma, Inc., priority 2019, dated 2021).

Experiments:
sedation = conditions: orally administered, humans; U.S. Pat. Nos. 9,138,431 and 9,345,697; cited from earlier work
IL-13 = test: PHA-induced release of IL-13 from human buffy coats; format: cell-based; conditions: PHA 5 μg/ml, 16 hours, inhibition
Experimental: The study was conducted in two phases. The first phase included optimization of the test methodology and included also dose-range finding studies, using buffy coats from 3 human donors, stimulated with phytohemagglutinin (PHA). The concentrations of the test article and the duration of exposure were optimized to obtain acceptable dose-response ratios. Following optimization of the test conditions, a final protocol was issued. In the Main Study, buffy coats from 5 healthy human male donors were stimulated with PHA, 5 μg/ml.
The inhibitory effects of three concentrations of NK and one concentration of ketotifen were evaluated in the Main Study. The buffy coats were resuspended in assay media and were pre-incubated for 30 min with either vehicle/saline, ketotifen (10 μM) or norketotifen (1.0; 10 or 100 μM). Following these preincubations, the white blood cell suspensions were stimulated for 16 hours with PHA, 5 μg/ml. The cell system supernatants were then harvested and stored frozen.

O=C1Cc2ccccc2C(=C2CCNCC2)c2ccsc21 (racemic) [norketotifen]
Sedative side effects (sedation): free from sedative side effects | Effect on PHA-induced release of IL-13 (%) (IL-13; 1 uM): 0.00% | Effect on PHA-induced release of IL-13 (%) (IL-13; 10 uM): 34.49^1% | Effect on PHA-induced release of IL-13 (%) (IL-13; 100 uM): 74.25^1%
